# No end group written: not given here.
# Test system: antibodies formed against human papillomavirus (HPV)
# Assay: ELISA immunoassay of titer-plate-bound HPV peptides with subject serum (antibody-peptide complex, HRP anti-human IgG, TMB)
# Format: binding
# Settings: serum of Subject 6 (low pre-test probability, no HPV DNA detected), diluted 1:25; absorbance read at 450 nm
# Experimental: REACTI-BIND™ Maleic Anhydride Activated Polystyrene Plates (Pierce, Rockford, Ill.) may be employed. Each amino acid sequence may be diluted to 12.5 μg/mL with coating buffer (100 mM sodium bicarbonate buffer, pH 9.4). To each titer well, 100 μL (1.25 μg) of the diluted sequence solution may be added. The plate may then be incubated for one hour at room temperature with shaking. The plate may be emptied and residual liquid tapped onto a clean paper towel. Each well may be washed with 100 μL wash buffer (0.1% bovine serum albumin and 0.05% Tween-20 in phosphate buffered saline, pH 7.0). This may be repeated for a total of three times. Each time, the plate may be emptied and residual liquid tapped onto a clean paper towel. To each well, 200 μL of blocking solution (3% bovine serum albumin and 0.05% Tween-20 in phosphate buffered saline, pH 7.0) may be added.
# Blocking solution may be left in each well for one minute. The titer plate may then be emptied by inversion. Filling with blocking solution and emptying may be done three times. Finished titer plates may be dried at room temperature and stored at 4° C. for up to four months.
# For negative samples, serum may be obtained from virgin females, ages 14 and 15, and from adult sexually active, monogamous women, more than 25 years old, with histories of no Pap smear abnormalities and DNA verification of HPV absence. Positive samples consisted of serum obtained from females diagnosed with cervical cancer or precancerous disease. Subject and control sera may be diluted 1:25 with wash buffer (0.1% bovine serum albumin and […] in phosphate buffered saline, pH 7.0). To each well, 100 μL of diluted serum may be added, and the assay plate incubated for one hour at room temperature with shaking. Each well may then be rinsed three times, each with 200 μL wash buffer. Each rinse may be for five minutes. […]
# The bottom of the titer plate may be cleaned with 70% ethanol, and the titer plate loaded into the spectrophotometer. Absorbance may be read at 450 nm, with […] of TMB solution plus […] of 2N HCl used as a blank control.
row,Substance,absorbance values
1,"HAGGQVILCPTSVFSSNEVSSPE [SEQ ID NO 3, 23 residues making up amino acids 187 through 209 of the HPV 16 E2 oncoprotein]",0.49
2,"KHGYTVQFDGICNTMHY [SEQ ID NO 2, 17 residues making up amino acids 112 through 131 of the HPV 16 E2 oncoprotein]",0.32
3,Lys Gln Leu Gln His Thr Pro Ser Pro Tyr Ser Ser Thr Val Ser Val Gly Thr Ala Lys Thr Tyr [SEQ ID NO 1],0.44

# Source: US6933123B2, “Peptides from the E2, E6, and E7 proteins of human papilloma viruses 16 and 18 for detecting and/or diagnosing cervical and other human papillomavirus associated cancers” (priority 2001, dated 2005)
